Data reported in patent US11400059B2, “Treatment of pain and/or pain related symptoms associated with dysmenorrhea” (ALYRA BIOTECH PTY LTD, priority 2017, dated 2022).

Experiments:
[1] = target: T1, Human TLR2 (Homo sapiens, UniProt O60603); test: Human TLR antagonist screening, NF-κB SEAP reporter in HEK293 cells; type: cell-based; conditions: antagonist mode, test article 1 μM, +HKLM 1 × 10^6 cells/mL, No Sample 6, Control− 1
T1 construct: expressed in transfected cells; host or cells: HEK293
T1 sequence (O60603 21-784): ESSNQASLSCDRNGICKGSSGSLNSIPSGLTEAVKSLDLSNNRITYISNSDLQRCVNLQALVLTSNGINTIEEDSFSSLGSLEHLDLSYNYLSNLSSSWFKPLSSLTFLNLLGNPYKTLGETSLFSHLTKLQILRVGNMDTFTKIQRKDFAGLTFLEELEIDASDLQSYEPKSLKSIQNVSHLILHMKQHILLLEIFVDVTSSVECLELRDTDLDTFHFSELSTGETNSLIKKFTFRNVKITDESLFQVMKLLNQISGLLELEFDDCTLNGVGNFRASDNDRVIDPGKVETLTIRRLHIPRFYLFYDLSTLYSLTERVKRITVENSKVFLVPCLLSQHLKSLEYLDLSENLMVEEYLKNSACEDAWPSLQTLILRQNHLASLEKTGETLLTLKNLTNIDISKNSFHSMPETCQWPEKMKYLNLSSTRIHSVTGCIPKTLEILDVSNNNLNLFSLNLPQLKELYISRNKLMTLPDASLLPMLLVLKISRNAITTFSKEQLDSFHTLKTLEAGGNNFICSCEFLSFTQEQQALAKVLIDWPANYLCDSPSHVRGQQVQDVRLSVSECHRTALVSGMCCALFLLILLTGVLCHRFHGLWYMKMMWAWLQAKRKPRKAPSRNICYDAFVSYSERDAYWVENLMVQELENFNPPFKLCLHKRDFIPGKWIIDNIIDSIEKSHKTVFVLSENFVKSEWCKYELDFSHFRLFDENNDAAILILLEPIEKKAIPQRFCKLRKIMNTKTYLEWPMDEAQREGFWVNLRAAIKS
Procedure: Toll-Like Receptor (TLR), NOD-Like Receptor (NLR) and C-Type Lectin Receptor (CLR) stimulation were tested by assessing NF-κB activation in HEK293 cells expressing a given TLR, NLR or CLR. The activity of the test articles was tested at one concentration and compared to control ligands. These steps were performed in triplicate. TLR2: […] Antagonist: 1×10^6 cells/mL: In a 96-well plate (200 μL total volume) containing the appropriate cells (50,000-75,000 cells/well), 20 μL of the test article or the positive control ligand was added to the wells. For the antagonist assay, the test article was incubated with the cells, at 37° C. with 5% CO2, for 30 minutes prior to the addition of the positive control ligand to the wells. The media added to the wells was designed for the detection of NF-κB induced SEAP expression. After a 16-24 hr incubation the optical density (OD) was read at 650 nm on a Molecular Devices SpectraMax 340PC absorbance detector. Fold induction (ratio of average induced value to average non-induced value) was determined for each TLR, NOD1, NOD2, Dectin-1a, Dectin-1b.

[2] = target: T2, hTLR7 (Homo sapiens, UniProt Q9NYK1); test: as above; type: cell-based; conditions: antagonist mode, test article 1 μM, +CL307 10 ng/ml, No Sample 13, Control− 1
T2 construct: expressed in transfected cells; host or cells: HEK293
T2 sequence (Q9NYK1 27-1049): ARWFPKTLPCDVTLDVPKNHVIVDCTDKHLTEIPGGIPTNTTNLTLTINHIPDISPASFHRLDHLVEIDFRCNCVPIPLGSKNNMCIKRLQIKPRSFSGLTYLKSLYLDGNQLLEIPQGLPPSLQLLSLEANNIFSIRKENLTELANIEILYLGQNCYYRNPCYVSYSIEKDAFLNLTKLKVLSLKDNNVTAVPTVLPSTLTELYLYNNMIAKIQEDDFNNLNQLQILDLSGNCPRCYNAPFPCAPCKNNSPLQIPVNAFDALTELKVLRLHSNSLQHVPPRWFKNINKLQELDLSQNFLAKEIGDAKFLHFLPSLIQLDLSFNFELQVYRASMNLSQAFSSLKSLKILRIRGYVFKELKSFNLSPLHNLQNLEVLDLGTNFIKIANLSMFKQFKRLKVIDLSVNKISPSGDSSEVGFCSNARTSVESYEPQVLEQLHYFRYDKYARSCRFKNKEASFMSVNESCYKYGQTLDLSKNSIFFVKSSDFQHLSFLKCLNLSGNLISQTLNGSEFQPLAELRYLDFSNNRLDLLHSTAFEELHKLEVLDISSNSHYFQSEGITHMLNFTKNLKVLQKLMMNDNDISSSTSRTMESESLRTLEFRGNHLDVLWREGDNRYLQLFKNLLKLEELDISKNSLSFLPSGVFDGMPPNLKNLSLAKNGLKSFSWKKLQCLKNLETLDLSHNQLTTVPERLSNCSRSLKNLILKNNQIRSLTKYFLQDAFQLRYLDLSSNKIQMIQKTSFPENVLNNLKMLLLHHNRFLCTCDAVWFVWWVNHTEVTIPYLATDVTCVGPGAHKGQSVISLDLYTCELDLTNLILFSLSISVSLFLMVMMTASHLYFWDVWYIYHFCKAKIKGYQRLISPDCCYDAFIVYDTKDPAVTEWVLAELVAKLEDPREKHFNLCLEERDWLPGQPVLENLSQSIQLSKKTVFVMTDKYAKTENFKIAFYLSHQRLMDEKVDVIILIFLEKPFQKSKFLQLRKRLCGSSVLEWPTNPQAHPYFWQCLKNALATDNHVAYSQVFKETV
Procedure: Toll-Like Receptor (TLR), NOD-Like Receptor (NLR) and C-Type Lectin Receptor (CLR) stimulation were tested by assessing NF-κB activation in HEK293 cells expressing a given TLR, NLR or CLR. The activity of the test articles was tested at one concentration and compared to control ligands. These steps were performed in triplicate. hTLR7: CL307 at 1 μg/mL Antagonist: 10 ng/mL. In a 96-well plate (200 μL total volume) containing the appropriate cells (50,000-75,000 cells/well), 20 μL of the test article or the positive control ligand was added to the wells. For the antagonist assay, the test article was incubated with the cells, at 37° C. with 5% CO2, for 30 minutes prior to the addition of the positive control ligand to the wells. The media added to the wells was designed for the detection of NF-κB induced SEAP expression. […] Fold induction (ratio of average induced value to average non-induced value) was determined for each TLR, NOD1, NOD2, Dectin-1a, Dectin-1b.

Row | Structure (SMILES) | Fold Induction [1] | Fold Induction ([1]; listed as Ami) | Fold Induction [2] | Fold Induction ([2]; listed as Ami) | Fold Induction ([1]; listed as Nor) | Fold Induction ([2]; listed as Nor)
1 | CN(C)CCC=C1c2ccccc2CCc2ccccc21 [Amitriptyline] | slight inhibitory effect | 5 | slight potentiating effect | 16 | – | –
2 | CNCCC=C1c2ccccc2CCc2ccccc21 [Nortriptyline] | slight inhibitory effect | – | slight potentiating | – | 5 | 16
